Reference: PubChem BioAssay AID1259407 (Chemical Carcinogenesis Research Information System (CCRIS), 2018)
Calls of active or inactive are those of the source. No rule for the calls is given here.

Test system: CCRIS mutagenicity, Ames/micronucleus/aberration tests
Assay: CCRIS mutagenicity studies
[1] = Test System: AMES SALMONELLA TYPHIMURIUM, Strain/Indicator: TA98, Metabolic Activation: NONE, Method: STANDARD PLATE
[2] = Test System: AMES SALMONELLA TYPHIMURIUM, Strain/Indicator: TA98, Metabolic Activation: RAT, LIVER, S-9, AROCLOR 1254, Method: STANDARD PLATE
[3] = Test System: AMES SALMONELLA TYPHIMURIUM, Strain/Indicator: TA100, Metabolic Activation: NONE, Method: STANDARD PLATE
[4] = Test System: AMES SALMONELLA TYPHIMURIUM, Strain/Indicator: TA100, Metabolic Activation: RAT, LIVER, S-9, AROCLOR 1254, Method: STANDARD PLATE
[5] = Test System: AMES SALMONELLA TYPHIMURIUM, Strain/Indicator: TA1535, Metabolic Activation: NONE, Method: STANDARD PLATE
[6] = Test System: AMES SALMONELLA TYPHIMURIUM, Strain/Indicator: TA1535, Metabolic Activation: RAT, LIVER, S-9, AROCLOR 1254, Method: STANDARD PLATE
[7] = Test System: AMES SALMONELLA TYPHIMURIUM, Strain/Indicator: TA1537, Metabolic Activation: NONE, Method: STANDARD PLATE
[8] = Test System: AMES SALMONELLA TYPHIMURIUM, Strain/Indicator: TA1537, Metabolic Activation: RAT, LIVER, S-9, AROCLOR 1254, Method: STANDARD PLATE
[9] = Test System: AMES SALMONELLA TYPHIMURIUM, Strain/Indicator: TA1538, Metabolic Activation: NONE, Method: STANDARD PLATE
[10] = Test System: AMES SALMONELLA TYPHIMURIUM, Strain/Indicator: TA1538, Metabolic Activation: RAT, LIVER, S-9, AROCLOR 1254, Method: STANDARD PLATE
[11] = Test System: AMES SALMONELLA TYPHIMURIUM, Strain/Indicator: TA98, Metabolic Activation: NONE, Method: PREINCUBATION
[12] = Test System: AMES SALMONELLA TYPHIMURIUM, Strain/Indicator: TA100, Metabolic Activation: NONE, Method: PREINCUBATION

CCCCC=O
mutagenic call (Test System: AMES SALMONELLA TYPHIMURIUM, Strain/Indicator: TA98, Metabolic Activation: HAMSTER, LIVER, S-9, AROCLOR 1254, Method: STANDARD PLATE): inactive; negative
mutagenic call [1]: inactive; negative
mutagenic call [2]: inactive; negative
mutagenic call (Test System: AMES SALMONELLA TYPHIMURIUM, Strain/Indicator: TA100, Metabolic Activation: HAMSTER, LIVER, S-9, AROCLOR 1254, Method: STANDARD PLATE): inactive; negative
mutagenic call [3]: inactive; negative
mutagenic call [4]: inactive; negative
mutagenic call (Test System: AMES SALMONELLA TYPHIMURIUM, Strain/Indicator: TA1535, Metabolic Activation: HAMSTER, LIVER, S-9, AROCLOR 1254, Method: STANDARD PLATE): inactive; negative
mutagenic call [5]: inactive; negative
mutagenic call [6]: inactive; negative
mutagenic call (Test System: AMES SALMONELLA TYPHIMURIUM, Strain/Indicator: TA1537, Metabolic Activation: HAMSTER, LIVER, S-9, AROCLOR 1254, Method: STANDARD PLATE): inactive; negative
mutagenic call [7]: inactive; negative
mutagenic call [8]: inactive; negative
mutagenic call (Test System: AMES SALMONELLA TYPHIMURIUM, Strain/Indicator: TA1538, Metabolic Activation: HAMSTER, LIVER, S-9, AROCLOR 1254, Method: STANDARD PLATE): inactive; negative
mutagenic call [9]: inactive; negative
mutagenic call [10]: inactive; negative
mutagenic call (Test System: CHINESE HAMSTER V-79, Strain/Indicator: V-79/6-THIOGUANINE (HGPRT), Metabolic Activation: NONE, Method: REPLATING): active; positive
mutagenic call (Test System: CHINESE HAMSTER V-79, Strain/Indicator: V-79/OUABAIN (NA/K), Metabolic Activation: NONE, Method: REPLATING): active; positive
mutagenic call (Test System: MOUSE LYMPHOMA, Strain/Indicator: L5178Y (TK+/TK-), Metabolic Activation: NONE, Method: SUSPENSION/PLATE): active; positive. reevaluation of results: positive
mutagenic call (Test System: MOUSE LYMPHOMA, Strain/Indicator: L5178Y (TK+/TK-), Metabolic Activation: RAT, LIVER, S-9, AROCLOR 1254, Method: SUSPENSION/PLATE): inactive; negative. reevaluation of results: negative
mutagenic call (Test System: UDS HUMAN HEPATOCYTES, Strain/Indicator: THY INCORP, Metabolic Activation: NONE, Method: AUTORADIOGRAPHY): inactive; negative
mutagenic call (Test System: UDS RAT HEPATOCYTES, Strain/Indicator: THY INCORP, Metabolic Activation: NONE, Method: AUTORADIOGRAPHY): active; positive

COc1cc(N)c([N+](=O)[O-])cc1N
mutagenic call [1]: active; positive
mutagenic call [2]: active; positive
mutagenic call [3]: inactive; negative
mutagenic call [4]: active; positive
mutagenic call [5]: inactive; negative
mutagenic call [6]: inactive; negative
mutagenic call [7]: active; positive
mutagenic call [8]: active; positive
mutagenic call [9]: active; positive
mutagenic call [10]: active; positive

O=[N+]([O-])c1cccc(S(=O)(=O)O)c1
mutagenic call [11]: inactive; negative
mutagenic call (Test System: AMES SALMONELLA TYPHIMURIUM, Strain/Indicator: TA98, Metabolic Activation: RAT, LIVER, S-9, KANECHLOR 500, Method: PREINCUBATION): inactive; negative
mutagenic call [12]: inactive; negative
mutagenic call (Test System: AMES SALMONELLA TYPHIMURIUM, Strain/Indicator: TA100, Metabolic Activation: RAT, LIVER, S-9, KANECHLOR 500, Method: PREINCUBATION): inactive; negative

Cc1cc(O)c2c(c1O)C(=O)C13C(=C2O)C(=O)C2C(O)C1C1C(O)C3C(=O)C3=C(O)c4c(O)cc(C)c(O)c4C(=O)C321 (centres undefined)
mutagenic call [12]: inactive; negative
mutagenic call (Test System: AMES SALMONELLA TYPHIMURIUM, Strain/Indicator: TA100, Metabolic Activation: RAT, LIVER, S-9, PHENOBARBITAL, Method: PREINCUBATION): inactive; negative

CCCCCCOC(=O)c1ccccc1C(=O)OCCCCCC
mutagenic call (Test System: AMES SALMONELLA TYPHIMURIUM, Strain/Indicator: TA98, Metabolic Activation: HAMSTER, LIVER, S-9, AROCLOR 1254 (10%), Method: PREINCUBATION): inactive; negative
mutagenic call [11]: inactive; negative
mutagenic call (Test System: AMES SALMONELLA TYPHIMURIUM, Strain/Indicator: TA98, Metabolic Activation: RAT, LIVER, S-9, AROCLOR 1254 (10%), Method: PREINCUBATION): inactive; negative
mutagenic call (Test System: AMES SALMONELLA TYPHIMURIUM, Strain/Indicator: TA100, Metabolic Activation: HAMSTER, LIVER, S-9, AROCLOR 1254 (10%), Method: PREINCUBATION): inactive; negative
mutagenic call [12]: inactive; negative
mutagenic call (Test System: AMES SALMONELLA TYPHIMURIUM, Strain/Indicator: TA100, Metabolic Activation: RAT, LIVER, S-9, AROCLOR 1254 (10%), Method: PREINCUBATION): inactive; negative
mutagenic call (Test System: AMES SALMONELLA TYPHIMURIUM, Strain/Indicator: TA1535, Metabolic Activation: HAMSTER, LIVER, S-9, AROCLOR 1254 (10%), Method: PREINCUBATION): inactive; negative
mutagenic call (Test System: AMES SALMONELLA TYPHIMURIUM, Strain/Indicator: TA1535, Metabolic Activation: NONE, Method: PREINCUBATION): inactive; negative
mutagenic call (Test System: AMES SALMONELLA TYPHIMURIUM, Strain/Indicator: TA1535, Metabolic Activation: RAT, LIVER, S-9, AROCLOR 1254 (10%), Method: PREINCUBATION): inactive; negative
mutagenic call (Test System: AMES SALMONELLA TYPHIMURIUM, Strain/Indicator: TA1537, Metabolic Activation: HAMSTER, LIVER, S-9, AROCLOR 1254 (10%), Method: PREINCUBATION): inactive; negative
mutagenic call (Test System: AMES SALMONELLA TYPHIMURIUM, Strain/Indicator: TA1537, Metabolic Activation: NONE, Method: PREINCUBATION): inactive; negative
mutagenic call (Test System: AMES SALMONELLA TYPHIMURIUM, Strain/Indicator: TA1537, Metabolic Activation: RAT, LIVER, S-9, AROCLOR 1254 (10%), Method: PREINCUBATION): inactive; negative

CCCCNC(=O)c1cc(N)ccc1OC1CCCCC1
mutagenic call (Test System: Ames Salmonella typhimurium, Strain/Indicator: TA98, Metabolic Activation: None, Method: Preincubation): inactive; negative. data given only in abstract.
mutagenic call (Test System: Ames Salmonella typhimurium, Strain/Indicator: TA98, Metabolic Activation: Rat, Liver, S-9, Phenobarbital and beta-naphthoflavone, Method: Preincubation): active; positive. a hydroxylated form of pa7 appears to be the active component.
mutagenic call (Test System: Ames Salmonella typhimurium, Strain/Indicator: TA100, Metabolic Activation: None, Method: Preincubation): inactive; negative. data given only in abstract.
mutagenic call (Test System: Ames Salmonella typhimurium, Strain/Indicator: TA100, Metabolic Activation: Rat, Liver, S-9, Phenobarbital and beta-naphthoflavone, Method: Preincubation): active; positive. a hydroxylated form of pa7 appears to be the active component.
mutagenic call (Test System: Ames Salmonella typhimurium, Strain/Indicator: TA102, Metabolic Activation: None, Method: Preincubation): inactive; negative. data given only in abstract.
mutagenic call (Test System: Ames Salmonella typhimurium, Strain/Indicator: TA1535, Metabolic Activation: None, Method: Preincubation): inactive; negative. data given only in abstract.
mutagenic call (Test System: Ames Salmonella typhimurium, Strain/Indicator: TA1537, Metabolic Activation: None, Method: Preincubation): inactive; negative. data given only in abstract.

BrCc1cccc2c1-c1cccc3cccc-2c13
mutagenic call [1]: active; positive
mutagenic call [3]: active; positive

Oc1cccc2cc3c4ccccc4c4ccccc4c3cc12
mutagenic call (Test System: AMES SALMONELLA TYPHIMURIUM, Strain/Indicator: TA100, Metabolic Activation: RAT, LIVER, S-9, AROCLOR 1254, Method: PREINCUBATION): active; positive
